According to ChEMBL document CHEMBL4507268 (2021):

Assays:
[1] = target: 5'-AMP-activated protein kinase catalytic subunit alpha-2 (Homo sapiens) (UniProt P54646); conditions: Compound concentration 1000.0 nM
[2] = target: Serine/threonine-protein kinase MRCK beta (Homo sapiens) (UniProt Q9Y5S2); conditions: Compound concentration 1000.0 nM
[3] = target: Histamine H3 receptor (Homo sapiens) (UniProt Q9Y5N1); conditions: Compound concentration 10.0 uM
[4] = target: Tyrosine-protein kinase Blk (Homo sapiens) (UniProt P51451); conditions: Compound concentration 1000.0 nM
Sequence of Tyrosine-protein kinase Blk (Homo sapiens) (P51451 2-505 limits assumed): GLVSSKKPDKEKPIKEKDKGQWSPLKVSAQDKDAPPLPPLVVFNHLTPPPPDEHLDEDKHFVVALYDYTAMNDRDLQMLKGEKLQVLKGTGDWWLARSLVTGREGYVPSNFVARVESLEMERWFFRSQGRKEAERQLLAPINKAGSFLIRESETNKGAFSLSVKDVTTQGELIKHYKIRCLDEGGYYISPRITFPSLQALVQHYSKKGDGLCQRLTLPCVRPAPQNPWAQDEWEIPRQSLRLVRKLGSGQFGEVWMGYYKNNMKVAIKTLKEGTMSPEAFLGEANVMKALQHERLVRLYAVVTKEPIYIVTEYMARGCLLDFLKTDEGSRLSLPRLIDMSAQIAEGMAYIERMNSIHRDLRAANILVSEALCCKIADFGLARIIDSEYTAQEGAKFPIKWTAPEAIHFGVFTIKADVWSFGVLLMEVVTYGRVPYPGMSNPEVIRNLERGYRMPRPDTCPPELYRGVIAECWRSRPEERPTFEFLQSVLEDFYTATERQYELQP

[5] = target: Interleukin-1 receptor-associated kinase 3 (Homo sapiens) (UniProt Q9Y616); conditions: Compound concentration 1000.0 nM
Sequence of Interleukin-1 receptor-associated kinase 3 (Homo sapiens) (Q9Y616 whole entry): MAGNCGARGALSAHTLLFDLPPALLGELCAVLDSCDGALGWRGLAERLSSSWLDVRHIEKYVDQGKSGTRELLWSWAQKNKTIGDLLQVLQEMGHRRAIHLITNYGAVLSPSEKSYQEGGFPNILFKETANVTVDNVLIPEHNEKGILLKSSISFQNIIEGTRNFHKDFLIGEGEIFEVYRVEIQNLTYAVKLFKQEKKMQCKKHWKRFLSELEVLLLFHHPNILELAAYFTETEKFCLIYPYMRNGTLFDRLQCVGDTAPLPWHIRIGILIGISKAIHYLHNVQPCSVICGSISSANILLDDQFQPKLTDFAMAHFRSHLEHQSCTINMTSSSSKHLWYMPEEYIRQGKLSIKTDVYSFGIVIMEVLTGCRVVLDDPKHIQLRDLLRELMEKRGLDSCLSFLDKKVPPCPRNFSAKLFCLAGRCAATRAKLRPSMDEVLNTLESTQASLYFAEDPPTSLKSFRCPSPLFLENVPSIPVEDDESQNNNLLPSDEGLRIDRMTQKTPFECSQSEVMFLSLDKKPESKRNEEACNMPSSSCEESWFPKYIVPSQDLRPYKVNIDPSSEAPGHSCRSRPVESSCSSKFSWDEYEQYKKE

[6] = target: Activin receptor type-2A (Homo sapiens) (UniProt P27037); conditions: Compound concentration 1000.0 nM
[7] = target: Serine/threonine-protein kinase PLK3 (Homo sapiens) (UniProt Q9H4B4); conditions: Compound concentration 1000.0 nM
Sequence of Serine/threonine-protein kinase PLK3 (Homo sapiens) (Q9H4B4 whole entry, looked up): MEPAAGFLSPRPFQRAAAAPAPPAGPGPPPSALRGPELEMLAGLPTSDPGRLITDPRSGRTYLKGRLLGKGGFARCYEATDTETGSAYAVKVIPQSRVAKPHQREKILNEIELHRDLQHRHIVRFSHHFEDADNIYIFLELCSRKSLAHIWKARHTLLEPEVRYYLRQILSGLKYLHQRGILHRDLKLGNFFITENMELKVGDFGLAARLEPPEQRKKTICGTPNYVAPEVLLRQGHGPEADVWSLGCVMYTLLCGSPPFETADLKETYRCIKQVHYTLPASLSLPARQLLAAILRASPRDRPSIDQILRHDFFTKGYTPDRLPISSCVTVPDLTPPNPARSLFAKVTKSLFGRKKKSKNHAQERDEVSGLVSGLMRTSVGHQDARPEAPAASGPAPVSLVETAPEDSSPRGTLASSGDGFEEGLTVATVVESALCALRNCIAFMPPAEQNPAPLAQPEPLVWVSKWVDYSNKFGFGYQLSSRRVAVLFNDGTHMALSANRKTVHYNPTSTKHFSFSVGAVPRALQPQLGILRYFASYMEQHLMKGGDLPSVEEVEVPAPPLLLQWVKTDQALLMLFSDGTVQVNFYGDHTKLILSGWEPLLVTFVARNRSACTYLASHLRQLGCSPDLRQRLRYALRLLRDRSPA

[8] = target: Citron Rho-interacting kinase (Homo sapiens) (UniProt O14578); conditions: Compound concentration 1000.0 nM
[9] = target: Megakaryocyte-associated tyrosine-protein kinase (Homo sapiens) (UniProt P42679); conditions: Compound concentration 1000.0 nM
[10] = test system: Tyrosine-protein kinase ABL1 (Homo sapiens), P00519 [F317L]; conditions: Compound concentration 1000.0 nM
Sequence of Tyrosine-protein kinase ABL1 (Homo sapiens), P00519 [F317L] (P00519 whole entry F317L): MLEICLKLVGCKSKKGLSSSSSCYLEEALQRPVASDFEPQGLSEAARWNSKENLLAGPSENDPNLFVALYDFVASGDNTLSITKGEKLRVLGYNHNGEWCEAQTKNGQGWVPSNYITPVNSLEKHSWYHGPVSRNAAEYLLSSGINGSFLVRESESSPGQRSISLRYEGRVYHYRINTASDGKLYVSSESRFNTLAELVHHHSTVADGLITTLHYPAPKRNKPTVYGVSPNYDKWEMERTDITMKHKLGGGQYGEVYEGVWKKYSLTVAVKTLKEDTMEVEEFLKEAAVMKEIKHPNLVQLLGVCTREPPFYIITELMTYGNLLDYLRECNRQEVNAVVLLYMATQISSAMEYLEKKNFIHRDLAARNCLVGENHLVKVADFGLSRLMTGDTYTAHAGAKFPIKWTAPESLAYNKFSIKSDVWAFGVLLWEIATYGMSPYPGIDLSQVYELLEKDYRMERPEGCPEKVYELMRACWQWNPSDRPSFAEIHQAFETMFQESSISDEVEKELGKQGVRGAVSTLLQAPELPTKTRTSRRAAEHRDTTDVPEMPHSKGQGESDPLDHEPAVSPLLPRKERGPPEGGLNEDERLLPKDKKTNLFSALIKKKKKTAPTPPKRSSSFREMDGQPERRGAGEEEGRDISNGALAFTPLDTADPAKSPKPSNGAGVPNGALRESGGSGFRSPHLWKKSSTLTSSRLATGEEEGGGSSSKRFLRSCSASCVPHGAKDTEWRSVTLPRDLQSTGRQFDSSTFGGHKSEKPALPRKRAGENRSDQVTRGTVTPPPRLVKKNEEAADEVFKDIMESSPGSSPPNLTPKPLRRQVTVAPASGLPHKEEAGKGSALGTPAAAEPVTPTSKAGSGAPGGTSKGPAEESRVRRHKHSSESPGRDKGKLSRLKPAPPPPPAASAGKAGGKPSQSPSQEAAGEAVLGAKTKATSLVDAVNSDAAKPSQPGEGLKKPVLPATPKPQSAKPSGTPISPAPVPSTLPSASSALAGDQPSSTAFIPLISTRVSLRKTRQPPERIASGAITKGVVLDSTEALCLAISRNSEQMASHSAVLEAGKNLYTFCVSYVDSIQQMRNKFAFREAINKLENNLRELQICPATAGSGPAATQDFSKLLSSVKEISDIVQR

[11] = target: Ribosomal protein S6 kinase alpha-4 (Homo sapiens) (UniProt O75676); conditions: Compound concentration 1000.0 nM
[12] = target: Cyclin-dependent kinase 15 (Homo sapiens) (UniProt Q96Q40); conditions: Compound concentration 1000.0 nM
[13] = target: Alpha-2A adrenergic receptor (Homo sapiens) (UniProt P08913); conditions: Compound concentration 10.0 uM
[14] = target: Phosphatidylinositol 4-phosphate 3-kinase C2 domain-containing subunit beta (Homo sapiens) (UniProt O00750); conditions: Compound concentration 1000.0 nM
[15] = target: Serine/threonine-protein kinase WNK3 (Homo sapiens) (UniProt Q9BYP7); conditions: Compound concentration 1000.0 nM
[16] = target: Ephrin type-A receptor 6 (Homo sapiens) (UniProt Q9UF33); conditions: Compound concentration 1000.0 nM
Sequence of Ephrin type-A receptor 6 (Homo sapiens) (Q9UF33 whole entry, canonical isoform): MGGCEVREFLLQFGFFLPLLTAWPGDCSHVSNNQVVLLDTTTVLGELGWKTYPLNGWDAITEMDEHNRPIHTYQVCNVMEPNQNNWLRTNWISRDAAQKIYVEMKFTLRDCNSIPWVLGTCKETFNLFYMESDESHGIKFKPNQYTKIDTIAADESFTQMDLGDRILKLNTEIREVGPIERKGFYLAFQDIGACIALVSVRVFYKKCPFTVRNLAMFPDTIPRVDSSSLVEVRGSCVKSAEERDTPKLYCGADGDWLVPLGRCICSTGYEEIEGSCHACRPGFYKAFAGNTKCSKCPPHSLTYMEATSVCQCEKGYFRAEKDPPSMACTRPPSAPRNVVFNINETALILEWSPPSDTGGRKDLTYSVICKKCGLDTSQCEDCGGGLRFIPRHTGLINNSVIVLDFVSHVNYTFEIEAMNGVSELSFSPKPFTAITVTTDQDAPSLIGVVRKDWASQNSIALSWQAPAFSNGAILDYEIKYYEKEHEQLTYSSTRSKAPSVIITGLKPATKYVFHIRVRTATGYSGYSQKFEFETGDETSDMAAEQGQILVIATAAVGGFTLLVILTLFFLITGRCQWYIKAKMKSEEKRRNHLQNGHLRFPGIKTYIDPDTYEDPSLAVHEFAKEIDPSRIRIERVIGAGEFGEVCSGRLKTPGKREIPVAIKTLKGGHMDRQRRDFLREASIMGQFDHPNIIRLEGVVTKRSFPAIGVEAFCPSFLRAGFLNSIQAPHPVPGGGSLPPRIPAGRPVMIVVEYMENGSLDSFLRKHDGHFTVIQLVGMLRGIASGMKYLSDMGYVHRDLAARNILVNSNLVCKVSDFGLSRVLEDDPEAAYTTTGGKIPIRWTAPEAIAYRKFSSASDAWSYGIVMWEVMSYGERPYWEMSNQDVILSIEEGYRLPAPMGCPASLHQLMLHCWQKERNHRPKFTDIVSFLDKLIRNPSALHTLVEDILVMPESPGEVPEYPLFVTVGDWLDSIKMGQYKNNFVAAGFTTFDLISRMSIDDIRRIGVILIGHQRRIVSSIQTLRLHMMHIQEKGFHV

[17] = test system: Phosphatidylinositol 4,5-bisphosphate 3-kinase catalytic subunit alpha isoform (Homo sapiens), P42336 [E542K]; conditions: Compound concentration 1000.0 nM
[18] = target: Calcium/calmodulin-dependent protein kinase type II subunit alpha (Homo sapiens) (UniProt Q9UQM7); conditions: Compound concentration 1000.0 nM
Sequence of Calcium/calmodulin-dependent protein kinase type II subunit alpha (Homo sapiens) (Q9UQM7 whole entry): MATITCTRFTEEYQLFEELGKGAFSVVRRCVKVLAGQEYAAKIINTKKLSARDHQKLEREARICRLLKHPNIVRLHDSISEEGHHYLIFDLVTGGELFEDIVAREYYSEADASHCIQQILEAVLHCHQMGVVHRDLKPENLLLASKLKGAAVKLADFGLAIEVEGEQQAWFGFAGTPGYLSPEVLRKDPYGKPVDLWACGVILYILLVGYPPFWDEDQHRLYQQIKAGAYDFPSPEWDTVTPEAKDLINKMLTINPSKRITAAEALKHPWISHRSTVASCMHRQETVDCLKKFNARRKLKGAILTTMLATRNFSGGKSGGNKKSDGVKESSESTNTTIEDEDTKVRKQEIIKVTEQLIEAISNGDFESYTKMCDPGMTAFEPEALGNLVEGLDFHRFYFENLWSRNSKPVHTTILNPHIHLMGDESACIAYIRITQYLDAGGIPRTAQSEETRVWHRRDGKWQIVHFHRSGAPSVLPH

[19] = target: Serine/threonine-protein kinase tousled-like 2 (Homo sapiens) (UniProt Q86UE8); conditions: Compound concentration 1000.0 nM
[20] = target: T1, Dual specificity mitogen-activated protein kinase kinase 6 (Homo sapiens) (UniProt P52564); conditions: Compound concentration 1000.0 nM
T1 sequence (whole entry): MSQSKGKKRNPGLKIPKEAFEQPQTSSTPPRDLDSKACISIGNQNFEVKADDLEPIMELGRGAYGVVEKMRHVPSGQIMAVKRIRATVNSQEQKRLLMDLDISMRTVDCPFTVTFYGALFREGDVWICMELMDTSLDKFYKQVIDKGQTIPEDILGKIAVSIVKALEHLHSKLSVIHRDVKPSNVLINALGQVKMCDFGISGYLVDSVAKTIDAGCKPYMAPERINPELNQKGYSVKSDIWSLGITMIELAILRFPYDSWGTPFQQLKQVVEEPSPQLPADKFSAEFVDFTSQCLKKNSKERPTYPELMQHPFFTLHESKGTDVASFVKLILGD

[21] = target: Receptor tyrosine-protein kinase erbB-2 (Homo sapiens) (UniProt P04626); conditions: Compound concentration 1000.0 nM
[22] = target: Beta-2 adrenergic receptor (Homo sapiens) (UniProt P07550); conditions: Compound concentration 10.0 uM
[23] = target: Serine/threonine-protein kinase SIK2 (Homo sapiens) (UniProt Q9H0K1); conditions: Compound concentration 1000.0 nM
[24] = target: MAP kinase-interacting serine/threonine-protein kinase 2 (Homo sapiens) (UniProt Q9HBH9); conditions: Compound concentration 1000.0 nM
[25] = target: Phosphatidylinositol 4,5-bisphosphate 3-kinase catalytic subunit gamma isoform (Homo sapiens) (UniProt P48736); conditions: Compound concentration 1000.0 nM
[26] = target: T2, Ephrin type-B receptor 2 (Homo sapiens) (UniProt P29323); conditions: Compound concentration 1000.0 nM
T2 sequence (whole entry): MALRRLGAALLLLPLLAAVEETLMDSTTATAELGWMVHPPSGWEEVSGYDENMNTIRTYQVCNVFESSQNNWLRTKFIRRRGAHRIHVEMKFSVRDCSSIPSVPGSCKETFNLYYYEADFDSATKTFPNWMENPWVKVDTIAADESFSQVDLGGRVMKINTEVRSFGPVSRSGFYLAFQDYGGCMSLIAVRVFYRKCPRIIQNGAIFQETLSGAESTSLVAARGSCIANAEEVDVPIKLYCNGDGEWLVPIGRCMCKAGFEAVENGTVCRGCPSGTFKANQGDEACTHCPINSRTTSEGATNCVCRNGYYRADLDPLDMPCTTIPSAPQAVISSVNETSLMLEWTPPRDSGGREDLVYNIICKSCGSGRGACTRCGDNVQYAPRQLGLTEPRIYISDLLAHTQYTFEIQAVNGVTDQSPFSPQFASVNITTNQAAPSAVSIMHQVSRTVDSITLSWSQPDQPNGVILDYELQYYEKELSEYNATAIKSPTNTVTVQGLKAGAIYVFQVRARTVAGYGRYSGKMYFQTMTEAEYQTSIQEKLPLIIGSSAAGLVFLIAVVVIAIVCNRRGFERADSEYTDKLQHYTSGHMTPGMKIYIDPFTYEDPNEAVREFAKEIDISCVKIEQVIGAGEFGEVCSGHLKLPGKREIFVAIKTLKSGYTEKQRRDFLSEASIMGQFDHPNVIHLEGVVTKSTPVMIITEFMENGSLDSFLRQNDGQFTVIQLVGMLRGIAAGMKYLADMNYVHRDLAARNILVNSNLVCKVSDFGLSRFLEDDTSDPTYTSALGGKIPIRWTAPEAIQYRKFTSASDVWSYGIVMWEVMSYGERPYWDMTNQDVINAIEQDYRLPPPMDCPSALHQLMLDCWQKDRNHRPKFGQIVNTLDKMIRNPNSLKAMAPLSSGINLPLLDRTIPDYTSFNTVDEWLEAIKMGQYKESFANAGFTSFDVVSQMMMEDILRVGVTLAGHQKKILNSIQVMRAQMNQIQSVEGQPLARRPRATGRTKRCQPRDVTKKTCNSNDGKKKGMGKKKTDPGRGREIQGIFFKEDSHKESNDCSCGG

Sequence of 5'-AMP-activated protein kinase catalytic subunit alpha-2 (Homo sapiens) (P54646 whole entry, looked up): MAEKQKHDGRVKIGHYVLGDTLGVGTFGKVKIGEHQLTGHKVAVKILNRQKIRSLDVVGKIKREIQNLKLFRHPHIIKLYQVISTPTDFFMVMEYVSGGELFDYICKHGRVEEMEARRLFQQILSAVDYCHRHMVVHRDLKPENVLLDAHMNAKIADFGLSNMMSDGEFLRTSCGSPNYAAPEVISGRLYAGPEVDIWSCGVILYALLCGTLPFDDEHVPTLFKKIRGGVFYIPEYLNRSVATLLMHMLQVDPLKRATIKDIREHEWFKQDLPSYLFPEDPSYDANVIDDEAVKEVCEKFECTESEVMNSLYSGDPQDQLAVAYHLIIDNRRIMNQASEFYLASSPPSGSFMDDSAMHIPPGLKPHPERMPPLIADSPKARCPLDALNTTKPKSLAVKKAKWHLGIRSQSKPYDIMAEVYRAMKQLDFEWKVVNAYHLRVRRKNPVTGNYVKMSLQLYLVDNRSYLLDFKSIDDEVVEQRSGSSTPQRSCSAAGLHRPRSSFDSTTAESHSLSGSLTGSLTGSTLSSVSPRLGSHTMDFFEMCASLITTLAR

Cc1nc(C2CCN(C(=O)c3ccc(OC(F)(F)F)cc3N)CC2)c2ncc(N3CCN(C)CC3)cc2n1 [BAY-693]
inactive: residual activity [1] 100% | residual activity [2] 100% | inhibition [3] 38.4% | residual activity [4] 97% | residual activity [5] 99% | residual activity [6] 100% | residual activity [7] 100% | residual activity [8] 100% | residual activity [9] 100% | residual activity [10] 96% | residual activity [11] 100% | residual activity [12] 100% | inhibition [13] -6.02% | residual activity [14] 86% | residual activity [15] 94% | residual activity [16] 95% | residual activity [17] 92% | residual activity [18] 93% | residual activity [19] 100% | residual activity [20] 97% | residual activity [21] 100% | inhibition [22] -5.65% | residual activity [23] 100% | residual activity [24] 100% | residual activity [25] 79% | residual activity [26] 100%

CN1CCN(c2cnc3c(C4CCN(C(=O)c5ccc(OC(F)(F)F)cc5N)CC4)ncnc3c2)CC1 [BAY-885]
inactive: residual activity [1] 100% | residual activity [2] 100% | inhibition [3] 36.9% | residual activity [4] 91% | residual activity [5] 100% | residual activity [6] 100% | residual activity [7] 100% | residual activity [8] 100% | residual activity [9] 100% | residual activity [10] 100% | residual activity [11] 100% | residual activity [12] 100% | inhibition [13] -3.41% | residual activity [14] 98% | residual activity [15] 100% | residual activity [16] 100% | residual activity [17] 100% | residual activity [18] 69% | residual activity [19] 89% | residual activity [20] 88% | residual activity [21] 100% | inhibition [22] -4.21% | residual activity [23] 100% | residual activity [24] 100% | residual activity [25] 95% | residual activity [26] 78%
